# According to patent US8329645B2, “Polymyxin derivatives and uses thereof” (priority 2008, dated 2012):
# Where two headings read alike, the source gives them in different places. Where a SMILES comes first, the peptide text is derived from it. Bridges are numbered along the chain shown (N, C = ends). [ ]: non-standard residue; d: D form. The star is where a group is joined. Octanoyl = CCCCCCCC(=O)*; Dab = NCC[C@H](N)C(=O)O
# How the values were obtained:
# P. aeruginosa F58 = system: P. aeruginosa F58
# Description: (§1) Polymyxin B sulfate (Sigma-Aldrich, St. Louis, Mo., USA) was used as a control. […] The bacterial test strains originated from ATCC (10 strains), CCUG (11 strains), and NCTC (3 strains). Fourteen (14) strains (the F-strains) were purchased from Mobidiag Ltd., Helsinki, Finland.
# (§2) The inocula were prepared by adjusting the bacterial suspensions to a density equivalent to OD546 nm˜0.3 (˜10^8 CFU/ml˜0.5 McFarland) the yeast suspension to a density equivalent to OD546 nm˜0.75 (˜2×10^7 CFU/ml)._The suspensions were diluted to 10^7 CFU/ml. The plates were inoculated by using a Denley Multipoint Inoculator, 1 μl per spot corresponding to approx. 10^4 CFU/spot. Plates were incubated for 16-20 hours at 35° C.
# E. cloacae F232 = system: E. cloacae F232
# Description: as §1, §2
# E. coli NCTC 13353 = system: E. coli NCTC 13353
# Description: as §1, §2
# E. cloacae CCUG 52947 = system: E. cloacae CCUG 52947
# Description: as §1, §2
# S. aureus ATCC 25923 = system: S. aureus ATCC 25923
# Description: as §1, §2
# S. marcescens ATCC 8100 = system: S. marcescens ATCC 8100
# Description: as §1, §2
# E. coli F19 = system: E. coli F19
# Description: as §1, §2
# E. coli CCUG 41427 = system: E. coli CCUG 41427
# Description: as §1, §2
# E. coli NCTC 13352 = system: E. coli NCTC 13352
# Description: as §1, §2
# A. baumannii F264 = system: A. baumannii F264
# Description: as §1, §2
# K. pneumoniae F136 = system: K. pneumoniae F136
# Description: as §1, §2
# E. coli CCUG 41429 = system: E. coli CCUG 41429
# Description: as §1, §2
# E. coli CCUG 41424 = system: E. coli CCUG 41424
# Description: as §1, §2
# K. oxytoca ATCC 13182 = system: K. oxytoca ATCC 13182
# Description: as §1, §2
# [1] = system: S. maltophilia ATCC 17444
# Description: as §1, §2
# E. coli ATCC 25922 = system: E. coli ATCC 25922
# Description: as §1, §2
# E. cloacae F230 = system: E. cloacae F230
# Description: as §1, §2
# E. coli CCUG 41432 = system: E. coli CCUG 41432
# Description: as §1, §2
# E. coli F9 = system: E. coli F9
# Description: as §1, §2
# A. baumannii F263 = system: A. baumannii F263
# Description: as §1, §2
# E. coli CCUG 41422 = system: E. coli CCUG 41422
# Description: as §1, §2
# E. coli F10 = system: E. coli F10
# Description: as §1, §2
# C. albicans ATCC 28366 = system: C. albicans ATCC 28366
# Description: as §1, §2
# A. baumannii ATCC 19606 [2] = system: A. baumannii ATCC 19606
# Description: as §1, §2
# P. aeruginosa ATCC 27853 = system: P. aeruginosa ATCC 27853
# Description: as §1, §2
# K. pneumoniae F145 = system: K. pneumoniae F145
# Description: as §1, §2
# E. coli F8 = system: E. coli F8
# Description: as §1, §2
# K. oxytoca CCUG 51683 = system: K. oxytoca CCUG 51683
# Description: as §1, §2
# E. coli IH3080 = system: E. coli IH3080
# Description: as §1, §2
# E. cloacae ATCC 23355 = system: E. cloacae ATCC 23355
# Description: as §1, §2
# C. freundii ATCC 8090 = system: C. freundii ATCC 8090
# Description: as §1, §2
# E. coli CCUG 41425 = system: E. coli CCUG 41425
# Description: as §1, §2
# E. cloacae F231 = system: E. cloacae F231
# Description: as §1, §2
# P. aeruginosa CCUG 51971 = system: P. aeruginosa CCUG 51971
# Description: as §1, §2
# A. baumannii ATCC 19606 [3] = assay: Sensitization to rifampin: growth inhibition around wells on LB plates containing rifampin; type: cell-based, Acinetobacter baumannii; conditions: 4 μg
# K. pneumoniae ATCC 13883 = conditions: K. pneumoniae ATCC13883
# Description: as §1, §2
# E. coli NCTC 13351 = conditions: E. coli NCTC13351
# Description: as §1, §2
# K. pneumoniae CCUG 45421 = conditions: K. pneumoniae CCUG45421
# Description: as §1, §2
# K. pneumoniae F144 = conditions: K. pneumoniae F144
# Description: as §1, §2
molecule,measurement,setting,value
"CCCCCCCC(=O)N[C@H](C(=O)N[C@H](CO)C(=O)N[C@H]1CCNC(=O)[C@H]([C@@H](C)O)NC(=O)[C@H](CCN)NC(=O)[C@H](CCN)NC(=O)[C@H](CC(C)C)NC(=O)[C@@H](Cc2ccccc2)NC(=O)[C@H](CCN)NC1=O)[C@@H](C)O [NAB 739, OA-Thr-DSer-cy[Dab-Dab-DPhe-Leu-Dab-Dab-Thr-]] (Octanoyl-T[dS][Dab][Dab][dF]L[Dab][Dab]T; lactam 3-C)",MIC,P. aeruginosa F58; F58,8 µg/mL
same,MIC,E. cloacae F232; F232,2 µg/mL
same,MIC,E. coli NCTC 13353; NCTC 13353,1 µg/mL
same,MIC,E. cloacae CCUG 52947; CCUG 52947,2 µg/mL
same,MIC,S. aureus ATCC 25923; ATCC 25923,>32 µg/mL
same,MIC,S. marcescens ATCC 8100; ATCC 8100,>32 µg/mL
same,MIC,E. coli F19; F19,0.5 µg/mL
same,MIC,E. coli CCUG 41427; CCUG 41427,1 µg/mL
same,MIC,E. coli NCTC 13352; NCTC 13352,1 µg/mL
same,MIC,A. baumannii F264; F264,4 µg/mL
same,MIC,K. pneumoniae F136; F136,1 µg/mL
same,MIC,E. coli CCUG 41429; CCUG 41429,1 µg/mL
same,MIC,E. coli CCUG 41424; CCUG 41424,1 µg/mL
same,MIC,K. oxytoca ATCC 13182; ATCC 13182,2 µg/mL
same,MIC,[1]; ATCC 17444,16 µg/mL
same,MIC,E. coli ATCC 25922; ATCC 25922,1 µg/mL
same,MIC,E. cloacae F230; F230,2 µg/mL
same,MIC,E. coli CCUG 41432; CCUG 41432,1 µg/mL
same,MIC,E. coli F9; F9,1 µg/mL
same,MIC,A. baumannii F263; F263,4 µg/mL
same,MIC,E. coli CCUG 41422,1 µg/mL
same,MIC,E. coli F10; F10,1 µg/mL
same,MIC,C. albicans ATCC 28366; ATCC 28366,>32 µg/mL
same,MIC,A. baumannii ATCC 19606 [2]; ATCC 19606,8 µg/mL
same,MIC,P. aeruginosa ATCC 27853; ATCC 27853,8 µg/mL
same,MIC,K. pneumoniae F145; F145,2 µg/mL
same,MIC,E. coli F8; F8,1 µg/mL
same,MIC,K. oxytoca CCUG 51683; CCUG 51683,2 µg/mL
same,MIC,E. coli IH3080; IH3080,1 µg/mL
same,MIC,E. cloacae ATCC 23355; ATCC 23355,2 µg/mL
same,MIC,C. freundii ATCC 8090; ATCC 8090,2 µg/mL
same,MIC,E. coli CCUG 41425; CCUG 41425,1 µg/mL
same,MIC,E. cloacae F231; F231,2 µg/mL
same,MIC,P. aeruginosa CCUG 51971,8 µg/mL
same,growth inhibition around a well in the presence of rifampin,A. baumannii ATCC 19606 [3]; rifampin 0 μg/ml,113 square millimeters
same,growth inhibition around a well in the presence of rifampin,A. baumannii ATCC 19606 [3]; rifampin 0.1 μg/ml,177 square millimeters
same,growth inhibition around a well in the presence of rifampin,A. baumannii ATCC 19606 [3]; rifampin 0.3 μg/ml,314 square millimeters
Polymyxin B [reference compound],MIC,P. aeruginosa F58; P. aeruginosa F58,0.5 µg/mL
same,MIC,E. cloacae F232; E. cloacae F232,0.5 µg/mL
same,MIC,E. coli NCTC 13353; E. coli NCTC13353,1 µg/mL
same,MIC,E. cloacae CCUG 52947; E. cloacae CCUG52947,1 µg/mL
same,MIC,K. pneumoniae ATCC 13883,32(−8) μg/ml
same,MIC,S. aureus ATCC 25923; S. aureus ATCC 25923,>32 µg/mL
same,MIC,S. marcescens ATCC 8100; S. marcescens ATCC8100,>32 µg/mL
same,MIC,E. coli F19; E. coli F19,1 µg/mL
same,MIC,E. coli CCUG 41427; E. coli CCUG41427,1 µg/mL
same,MIC,E. coli NCTC 13352; E. coli NCTC 13352,0.25 µg/mL
same,MIC,A. baumannii F264; A. baumannii F264,0.5 µg/mL
same,MIC,K. pneumoniae F136; K. pneumoniae F136,0.5 µg/mL
same,MIC,E. coli CCUG 41429; E. coli CCUG41429,1 µg/mL
same,MIC,E. coli CCUG 41424; E. coli CCUG41424,1 µg/mL
same,MIC,K. oxytoca ATCC 13182; K. oxytoca ATCC13182,0.5 µg/mL
same,MIC,[1]; S. maltophilia ATCC17444,1 µg/mL
same,MIC,E. coli ATCC 25922; E. coli ATCC25922,1 µg/mL
same,MIC,E. cloacae F230; E. cloacae F230,0.5 µg/mL
same,MIC,E. coli CCUG 41432; E. coli CCUG41432,1 µg/mL
same,MIC,E. coli F9; E. coli F9,0.5 µg/mL
same,MIC,A. baumannii F263; A. baumannii F263,1 µg/mL
same,MIC,E. coli F10; E. coli F10,0.5 µg/mL
same,MIC,E. coli NCTC 13351,0.5 µg/mL
same,MIC,C. albicans ATCC 28366; C. albicans ATCC 28366,>32 µg/mL
same,MIC,A. baumannii ATCC 19606 [2]; A. baumannii ATCC 19606,1 µg/mL
same,MIC,K. pneumoniae CCUG 45421,1 µg/mL
same,MIC,K. pneumoniae F144,1 µg/mL
same,MIC,P. aeruginosa ATCC 27853; P. aeruginosa ATCC27853,1 µg/mL
same,MIC,K. pneumoniae F145; K. pneumoniae F145,0.5 µg/mL
same,MIC,E. coli F8; E. coli F8,1 µg/mL
same,MIC,K. oxytoca CCUG 51683; K. oxytoca CCUG51683,0.5 µg/mL
same,MIC,E. coli IH3080; E. coli IH3080,0.5 µg/mL
same,MIC,E. cloacae ATCC 23355; E. cloacae ATCC23355,0.5 µg/mL
same,MIC,C. freundii ATCC 8090; C. freundii ATCC8090,1 µg/mL
same,MIC,E. coli CCUG 41425; E. coli CCUG41425,0.5 µg/mL
same,MIC,E. cloacae F231; E. cloacae F231,0.5 µg/mL
